The target of one assay is T1, GLP-1R (Homo sapiens, UniProt P43220).
T1 construct: host or cells: HEK293
The assay can be described thus: In vitro GLP-1R agonistic activity test (cAMP kit). Type of assay: cell-based. The conditions noted are these: HEK293 host cells. The protocol:
(§1) The cell lines were constructed by Wuxi […] (Shanghai) Co., Ltd. See details in Table 1 below. [table] [table] The test compounds were diluted at a 4-fold dilution factor in 10 points, starting from an initial concentration of 30 μM. The dilution was carried out by Bravo. • 1) 100 nL of compounds were transferred to an OptiPlate-384 plate by Echo. • 2) The OptiPlate-384 plate was centrifuged at 1000 rpm for 5 s. • 1) A GLP-1R/GIPR cell cryovial was placed in warm water at 37° C. for rapid thawing. • 2) The cell suspension was transferred into a 15 mL Transfer centrifugal tube and rinsed with 10 mL of HBSS gently. • 3) The centrifugal tube was centrifuged at 1000 rpm at room temperature for 1 min. • 4) The supernatant was discarded. • 5) The bottom cells were gently dispersed, then gently rinsed with 10 mL of HBSS, the centrifugal tube was centrifuged to settle the cells, and finally the cells were resuspended in an experimental buffer. • 6) Cell density and viability were measured by Vi-cell. • 7) The GLP-1R/GIPR cells were diluted with the experimental buffer to a concentration of 2.0*10^5/mL. • 8) […] of the diluted cell suspension was transferred into the OptiPlate-384 plate. • 9) Incubation was performed at room temperature for 30 min. • 1) 10 μL of 800 nM gradient diluted cAMP standard was added into the empty wells of the OptiPlate-384 plate. • 2) 10 μL of cAMP assay reagent was added. • 3) The OptiPlate-384 plate was covered with TopSeal-A film and incubated at room temperature for 60 min. The TopSeal-A film was removed, and readout was performed on En Vision.

The target of a further assay is T2, GIPR (Homo sapiens, UniProt P48546).
T2 construct: host or cells: CHO
T2 sequence (P48546 22-466): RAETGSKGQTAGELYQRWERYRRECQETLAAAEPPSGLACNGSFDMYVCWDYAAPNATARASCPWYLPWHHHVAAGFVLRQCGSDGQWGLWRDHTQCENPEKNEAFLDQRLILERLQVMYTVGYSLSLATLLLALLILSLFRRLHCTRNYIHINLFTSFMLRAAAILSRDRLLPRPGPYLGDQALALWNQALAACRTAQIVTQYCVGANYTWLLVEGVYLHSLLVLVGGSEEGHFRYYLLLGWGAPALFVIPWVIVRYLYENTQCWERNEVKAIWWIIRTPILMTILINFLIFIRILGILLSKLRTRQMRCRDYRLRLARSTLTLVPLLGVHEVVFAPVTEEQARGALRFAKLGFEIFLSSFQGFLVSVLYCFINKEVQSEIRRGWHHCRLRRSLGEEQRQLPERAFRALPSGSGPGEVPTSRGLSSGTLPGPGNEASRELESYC
Nature of the assay: In vitro GIPR agonistic activity test (cAMP kit). Type of assay: cell-based. The conditions noted are these: CHO host cells. On the procedure: as §1, with “[table] [table]” left out

Our source for the EC50 values is patent publication US20240270810A1, “PREPARATION AND APPLICATION OF POLYPEPTIDE” (GUANGDONG RAYNOVENT BIOTECH CO., LTD., priority 2021, published 2024).

Broadly, the EC50 is the concentration at which the effect is half-maximal. Read a low EC50 as an effect from little substance.

Structures are written as SMILES.

T1 sequence (P43220 24-463, species assumed): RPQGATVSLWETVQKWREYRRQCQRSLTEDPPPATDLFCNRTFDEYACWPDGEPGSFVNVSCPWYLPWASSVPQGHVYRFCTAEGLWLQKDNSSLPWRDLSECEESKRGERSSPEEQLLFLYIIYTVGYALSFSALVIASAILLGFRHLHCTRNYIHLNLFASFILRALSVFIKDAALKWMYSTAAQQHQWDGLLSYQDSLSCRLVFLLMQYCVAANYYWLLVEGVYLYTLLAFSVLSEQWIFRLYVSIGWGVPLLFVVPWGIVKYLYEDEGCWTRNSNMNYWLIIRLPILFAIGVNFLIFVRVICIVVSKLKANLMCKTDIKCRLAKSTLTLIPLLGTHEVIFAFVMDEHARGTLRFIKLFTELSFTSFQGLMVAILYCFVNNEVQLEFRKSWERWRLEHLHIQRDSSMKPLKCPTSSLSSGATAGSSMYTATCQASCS

As for `CC[C@H](C)[C@H](NC(=O)[C@H](CC(C)C)NC(=O)[C@H](Cc1c[nH]c2ccccc12)NC(=O)[C@@H]1CCCCNC(=O)CN(C(=O)COCCOCCNC(=O)COCCOCCNC(=O)CC[C@H](NC(=O)CCCCCCCCCCCCCCCCCCC(=O)O)C(=O)O)CC(=O)NCCCC[C@H](NC(=O)[C@H](CCC(N)=O)NC(=O)[C@H](C)NC(=O)[C@@H](NC(=O)[C@H](CCCCN)NC(=O)[C@H](CC(=O)O)NC(=O)[C@H](CC(C)C)NC(=O)C(C)(C)NC(=O)[C@@H](NC(=O)[C@H](CO)NC(=O)[C@H](Cc2ccc(O)cc2)NC(=O)[C@H](CC(=O)O)NC(=O)[C@H](CO)NC(=O)[C@@H](NC(=O)[C@H](Cc2ccccc2)NC(=O)[C@@H](NC(=O)CNC(=O)[C@H](CCC(=O)O)NC(=O)C(C)(C)NC(=O)[C@@H](N)Cc2ccc(O)cc2)[C@@H](C)O)[C@@H](C)O)[C@@H](C)CC)[C@@H](C)CC)C(=O)N[C@@H](CCC(=O)O)C(=O)N[C@@H](Cc2ccccc2)C(=O)N[C@@H](C(C)C)C(=O)N1)C(=O)N[C@@H](C)C(=O)NCC(=O)NCC(=O)N1CCC[C@H]1C(=O)N[C@@H](CO)C(=O)N[C@@H](CO)C(=O)NCC(=O)N[C@@H](C)C(=O)N1CCC[C@H]1C(=O)N1CCC[C@H]1C(=O)N1CCC[C@H]1C(=O)N[C@@H](CO)C(N)=O` [WX-002], the concentration for a half-maximal effect (EC50) was 31.3 nM at GLP-1R (with 1% HSA), 0.19 nM at GLP-1R (without 1% HSA), 12.5 nM at GIPR (with 1% HSA) and 0.43 nM at GIPR (without 1% HSA).
For the molecule `CC[C@H](C)[C@H](NC(=O)[C@H](CC(C)C)NC(=O)[C@H](Cc1c[nH]c2ccccc12)NC(=O)[C@@H]1CCCCNC(=O)CN(C(=O)COCCOCCNC(=O)COCCOCCNC(=O)CC[C@H](NC(=O)CCCCCCCCCCCCCCCCCCC(=O)O)C(=O)O)CC(=O)NCCCC[C@H](NC(=O)[C@H](CCC(N)=O)NC(=O)[C@H](C)NC(=O)[C@@H](NC(=O)[C@H](CCCCN)NC(=O)[C@H](CC(=O)O)NC(=O)[C@H](CC(C)C)NC(=O)C(C)(C)NC(=O)[C@@H](NC(=O)[C@H](CO)NC(=O)[C@H](Cc2ccc(O)cc2)NC(=O)[C@H](CC(=O)O)NC(=O)[C@H](CO)NC(=O)[C@@H](NC(=O)[C@H](Cc2ccccc2)NC(=O)[C@@H](NC(=O)CNC(=O)[C@H](CCC(=O)O)NC(=O)C(C)(C)NC(=O)[C@@H](N)Cc2ccc(O)cc2)[C@@H](C)O)[C@@H](C)O)[C@@H](C)CC)[C@@H](C)CC)C(=O)N[C@@H](C)C(=O)N[C@@H](Cc2ccccc2)C(=O)N[C@@H]([C@@H](C)CC)C(=O)N1)C(=O)N[C@@H](C)C(=O)NCC(=O)NCC(=O)N1CCC[C@H]1C(=O)N[C@@H](CO)C(=O)N[C@@H](CO)C(=O)NCC(=O)N[C@@H](C)C(=O)N1CCC[C@H]1C(=O)N1CCC[C@H]1C(=O)N1CCC[C@H]1C(=O)N[C@@H](CO)C(N)=O` [WX-003], the half-maximal effective concentration (EC50) on GLP-1R (with 1% HSA) was found to be 14 nM; on GLP-1R (without 1% HSA), 0.54 nM; on GIPR (without 1% HSA), 1.07 nM.
Regarding `CC[C@H](C)[C@H](NC(=O)[C@H](CC(C)C)NC(=O)[C@H](Cc1c[nH]c2ccccc12)NC(=O)[C@@H]1CCCCNC(=O)CN(C(=O)COCCOCCNC(=O)COCCOCCNC(=O)CC[C@H](NC(=O)CCCCCCCCCCCCCCCCCCC(=O)O)C(=O)O)CC(=O)NCCCC[C@H](NC(=O)[C@H](CCC(N)=O)NC(=O)[C@H](C)NC(=O)[C@@H](NC(=O)[C@H](CCCCN)NC(=O)[C@H](CC(=O)O)NC(=O)[C@H](CC(C)C)NC(=O)C(C)(C)NC(=O)[C@@H](NC(=O)[C@H](CO)NC(=O)[C@H](Cc2ccc(O)cc2)NC(=O)[C@H](CC(=O)O)NC(=O)[C@H](CO)NC(=O)[C@@H](NC(=O)[C@H](Cc2ccccc2)NC(=O)[C@@H](NC(=O)CNC(=O)[C@H](CCC(=O)O)NC(=O)C(C)(C)NC(=O)[C@@H](N)Cc2ccc(O)cc2)[C@@H](C)O)[C@@H](C)O)[C@@H](C)CC)[C@@H](C)CC)C(=O)N[C@@H](C)C(=O)N[C@@H](Cc2ccccc2)C(=O)N[C@@H](C(C)C)C(=O)N1)C(=O)N[C@@H](C)C(=O)NCC(=O)NCC(=O)N1CCC[C@H]1C(=O)N[C@@H](CO)C(=O)N[C@@H](CO)C(=O)NCC(=O)N[C@@H](C)C(=O)N1CCC[C@H]1C(=O)N1CCC[C@H]1C(=O)N1CCC[C@H]1C(=O)N[C@@H](CO)C(N)=O` [WX-004], the concentration giving a half-maximal response (EC50) at GLP-1R (with 1% HSA) was 84.3 nM; on GLP-1R (without 1% HSA), 1.86 nM; on GIPR (with 1% HSA) it was 21.4 nM; on GIPR (without 1% HSA), 1.36 nM.
Take `CC[C@H](C)[C@H](NC(=O)[C@H](CC(C)C)NC(=O)[C@H](Cc1c[nH]c2ccccc12)NC(=O)[C@H](CCC(N)=O)NC(=O)[C@@H](NC(=O)[C@H](Cc1ccccc1)NC(=O)[C@H](C)NC(=O)[C@@H]1CCCCNC(=O)CN(C(=O)COCCOCCNC(=O)COCCOCCNC(=O)CC[C@H](NC(=O)CCCCCCCCCCCCCCCCCCC(=O)O)C(=O)O)CC(=O)NCCCC[C@H](NC(=O)[C@H](CCCCN)NC(=O)[C@H](CC(=O)O)NC(=O)[C@H](CC(C)C)NC(=O)C(C)(C)NC(=O)[C@@H](NC(=O)[C@H](CO)NC(=O)[C@H](Cc2ccc(O)cc2)NC(=O)[C@H](CC(=O)O)NC(=O)[C@H](CO)NC(=O)[C@@H](NC(=O)[C@H](Cc2ccccc2)NC(=O)[C@@H](NC(=O)CNC(=O)[C@H](CCC(=O)O)NC(=O)C(C)(C)NC(=O)[C@@H](N)Cc2ccc(O)cc2)[C@@H](C)O)[C@@H](C)O)[C@@H](C)CC)C(=O)N[C@@H](C)C(=O)N[C@@H](CCC(N)=O)C(=O)N1)C(C)C)C(=O)N[C@@H](C)C(=O)NCC(=O)NCC(=O)N1CCC[C@H]1C(=O)N[C@@H](CO)C(=O)N[C@@H](CO)C(=O)NCC(=O)N[C@@H](C)C(=O)N1CCC[C@H]1C(=O)N1CCC[C@H]1C(=O)N1CCC[C@H]1C(=O)N[C@@H](CO)C(N)=O` [WX-006]: the EC50 on GLP-1R (without 1% HSA) came to 0.027 nM; on GIPR (without 1% HSA), 0.26 nM.
`CC[C@H](C)[C@H](NC(=O)[C@H](CC(C)C)NC(=O)[C@H](Cc1c[nH]c2ccccc12)NC(=O)[C@@H](NC(=O)[C@@H](NC(=O)[C@H](Cc1ccccc1)NC(=O)[C@H](C)NC(=O)[C@@H]1CCCCNC(=O)CN(C(=O)COCCOCCNC(=O)COCCOCCNC(=O)CC[C@H](NC(=O)CCCCCCCCCCCCCCCCCCC(=O)O)C(=O)O)CC(=O)NCCCC[C@H](NC(=O)[C@H](CCCCN)NC(=O)[C@H](CC(=O)O)NC(=O)[C@H](CC(C)C)NC(=O)C(C)(C)NC(=O)[C@@H](NC(=O)[C@H](CO)NC(=O)[C@H](Cc2ccc(O)cc2)NC(=O)[C@H](CC(=O)O)NC(=O)[C@H](CO)NC(=O)[C@@H](NC(=O)[C@H](Cc2ccccc2)NC(=O)[C@@H](NC(=O)CNC(=O)[C@H](CCC(=O)O)NC(=O)C(C)(C)NC(=O)[C@@H](N)Cc2ccc(O)cc2)[C@@H](C)O)[C@@H](C)O)[C@@H](C)CC)C(=O)N[C@@H](C)C(=O)N[C@@H](CCC(N)=O)C(=O)N1)C(C)C)[C@@H](C)CC)C(=O)N[C@@H](C)C(=O)NCC(=O)NCC(=O)N1CCC[C@H]1C(=O)N[C@@H](CO)C(=O)N[C@@H](CO)C(=O)NCC(=O)N[C@@H](C)C(=O)N1CCC[C@H]1C(=O)N1CCC[C@H]1C(=O)N1CCC[C@H]1C(=O)N[C@@H](CO)C(N)=O` [WX-008]: the results for the EC50 on GLP-1R (without 1% HSA) and on GIPR (without 1% HSA) were 0.18 nM and 2.74 nM, respectively.
